Test results taken from ChEMBL document CHEMBL1201862, “PubChem BioAssay data set” (2004).
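Dose response: 5 concentrations. Exposure: 48 h. Format: 96-well plates. Endpoint: linear interpolation; highest concentration if not reached. GI50 is the concentration that inhibits growth by half.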 Activity calls are given as the source filed them. Rule as the data show it: active = GI50 up to about 1.1 µM and inactive = higher.

How the values were obtained:
Assay in all cases: NCI tumour cell line growth inhibition, 48 h
SNB-19 = tested on: SNB-19
HOP-92 = tested on: HOP-92
HCC 2998 = tested on: HCC 2998
KM12 = tested on: KM12
SW-620 = tested on: SW-620
NCI-H522 = tested on: NCI-H522
SN12C = tested on: SN12C
OVCAR-3 = tested on: OVCAR-3
SK-MEL-5 = tested on: SK-MEL-5
HCT-15 = tested on: HCT-15
HCT-116 = tested on: HCT-116
HOP-62 = tested on: HOP-62
RXF 393 = tested on: RXF 393
NCI-H226 = tested on: NCI-H226
SNB-78 = tested on: SNB-78
SK-MEL-28 = tested on: SK-MEL-28
MOLT-4 = tested on: MOLT-4
CAKI-1 = tested on: CAKI-1

SMILES | GI50 (SNB-19) | GI50 (HOP-92) | GI50 (HCC 2998) | GI50 (KM12) | GI50 (SW-620) | GI50 (NCI-H522) | GI50 (SN12C) | GI50 (OVCAR-3) | GI50 (SK-MEL-5) | GI50 (HCT-15) [µM] | GI50 (HCT-116) | GI50 (HOP-62) | GI50 (RXF 393) | GI50 (NCI-H226) | GI50 (SNB-78) | GI50 (SK-MEL-28) | GI50 (MOLT-4) | GI50 (CAKI-1)
COc1ccc(C2=Nc3ccccc3N=C(SC)C2)cc1 | > 100 µM (inactive) | 15.6 µM (inactive) | 28.7 µM (inactive) | 27.5 µM (inactive) | 16.9 µM (inactive) | 22.9 µM (inactive) | 66.7 µM (inactive) | 54.1 µM (inactive) | 39.8 µM (inactive) | 33.7 | 50.4 µM (inactive) | > 100 µM (inactive) | 62.5 µM (inactive) | > 100 µM (inactive) | > 100 µM (inactive) | > 100 µM (inactive) | 25.5 µM (inactive) | 46.8 µM (inactive)
C/C(CC(=O)Nc1ccc([N+](=O)[O-])cc1)=N\Nc1ccc([N+](=O)[O-])cc1[N+](=O)[O-] |  | 73.6 µM (inactive) | 13.9 µM (inactive) | 29.3 µM (inactive) | > 100 µM (inactive) | 25.9 µM (inactive) |  | 98.2 µM (inactive) | 47.4 µM (inactive) | 7.66 | 59.7 µM (inactive) | 50.1 µM (inactive) | > 100 µM (inactive) | 52.7 µM (inactive) | > 100 µM (inactive) | > 100 µM (inactive) | 13.1 µM (inactive) | 
C[C@]12CCC(=O)C(O)=C1CC[C@@H]1C2CC[C@]2(C)Nc3c(cnn3-c3ccccc3)CC12 (some centres not stated) |  |  | > 100 µM (inactive) | 31.7 µM (inactive) | > 100 µM (inactive) |  |  | 54.8 µM (inactive) | 38.8 µM (inactive) | 49.9 | 28.2 µM (inactive) | > 100 µM (inactive) | 55.1 µM (inactive) | 64.3 µM (inactive) | > 100 µM (inactive) | > 100 µM (inactive) | 32.6 µM (inactive) | 56.9 µM (inactive)
O=c1[nH]c(=O)n(C2OC(CO)C(O)C2O)cc1OCc1ccccc1 (configuration not stated) | > 100 µM (inactive) | > 100 µM (inactive) | > 100 µM (inactive) | > 100 µM (inactive) | > 57 µM (inactive) | > 100 µM (inactive) | > 100 µM (inactive) | > 100 µM (inactive) | > 100 µM (inactive) | > 59 | > 63.4 µM (inactive) | > 100 µM (inactive) | > 57.4 µM (inactive) | > 100 µM (inactive) | > 100 µM (inactive) | > 100 µM (inactive) | > 100 µM (inactive) | > 100 µM (inactive)
c1ccc2c(c1)CCCc1cc3ccccc3nc1-2 | > 100 µM (inactive) |  | > 100 µM (inactive) | > 100 µM (inactive) | > 100 µM (inactive) | 82.4 µM (inactive) | > 100 µM (inactive) | > 100 µM (inactive) | 92.5 µM (inactive) | > 100 | > 100 µM (inactive) | > 100 µM (inactive) |  |  | 85.7 µM (inactive) | > 100 µM (inactive) | 57.5 µM (inactive) | > 100 µM (inactive)
O=C(NCCO)c1ccc([N+](=O)[O-])cc1 | > 100 µM (inactive) |  | > 100 µM (inactive) | > 100 µM (inactive) | > 100 µM (inactive) | > 100 µM (inactive) | > 100 µM (inactive) | > 100 µM (inactive) | > 100 µM (inactive) | > 100 |  | > 100 µM (inactive) | > 100 µM (inactive) | > 100 µM (inactive) | > 100 µM (inactive) | > 100 µM (inactive) | > 100 µM (inactive) | > 100 µM (inactive)
O=CC1CCC=CC1NC(=O)OCc1ccccc1 (configuration not stated) |  | 99.5 µM (inactive) |  | 47 µM (inactive) | 37.2 µM (inactive) | > 100 µM (inactive) | 35 µM (inactive) |  | 51.9 µM (inactive) | 54.8 | 19.1 µM (inactive) | > 100 µM (inactive) | 54.6 µM (inactive) | > 100 µM (inactive) | 50 µM (inactive) | > 100 µM (inactive) | 44.5 µM (inactive) | 34.4 µM (inactive)
Cn1cnc2nc(Cl)nc(NC(C)(C)C(C)(C)O)c21 | > 100 µM (inactive) | > 100 µM (inactive) | > 100 µM (inactive) | > 100 µM (inactive) | > 100 µM (inactive) | 72.4 µM (inactive) | > 100 µM (inactive) | > 100 µM (inactive) | > 100 µM (inactive) | > 100 | > 100 µM (inactive) | > 100 µM (inactive) | > 100 µM (inactive) | > 100 µM (inactive) | > 100 µM (inactive) |  | > 100 µM (inactive) | > 100 µM (inactive)
Cc1cc(N(CCC#N)CCC#N)ccc1/C=C(\NC(=O)/C=C/c1ccccc1)NC(=O)Nc1ccccc1C | 32.7 µM (inactive) | 23.4 µM (inactive) | > 100 µM (inactive) | > 100 µM (inactive) | > 100 µM (inactive) |  | 77.3 µM (inactive) | > 100 µM (inactive) | 61 µM (inactive) | > 100 | > 100 µM (inactive) |  | 17.2 µM (inactive) | 22.6 µM (inactive) | 51.5 µM (inactive) | > 100 µM (inactive) | > 100 µM (inactive) | 69.7 µM (inactive)
CCCCCCCCC(O)C#CC(N)=O (configuration not stated) | 11.8 µM (inactive) | 10.5 µM (inactive) | 10.6 µM (inactive) |  | 14.1 µM (inactive) |  | 7.59 µM (inactive) | 7.35 µM (inactive) | 12 µM (inactive) | 13.2 | 3.67 µM (inactive) |  | 13.7 µM (inactive) | 10.8 µM (inactive) | 15.6 µM (inactive) | 15.5 µM (inactive) | 16.9 µM (inactive) | 8.67 µM (inactive)
CC(C)=CC1C[C@H](C2CC=C3C2(C)CCC2[C@@]3(C)C(=O)CC3[C@]2(C)C=CC(=O)[C@]3(C)CO)CO1 (some centres not stated) | 19 µM (inactive) | 16.6 µM (inactive) | 16.3 µM (inactive) | 5.92 µM (inactive) | 4.28 µM (inactive) | 2.73 µM (inactive) | 20.3 µM (inactive) | 4.84 µM (inactive) | 10 µM (inactive) | 14.4 | 3.37 µM (inactive) | 12.7 µM (inactive) | 10.4 µM (inactive) |  | 13.6 µM (inactive) | 5.2 µM (inactive) | 2.7 µM (inactive) | 23.9 µM (inactive)
O=C1NC2(CCCCCC2)C2CCCCCCC12O (configuration not stated) | > 100 µM (inactive) | > 100 µM (inactive) |  | > 100 µM (inactive) | > 100 µM (inactive) | > 100 µM (inactive) | > 100 µM (inactive) | > 100 µM (inactive) | > 100 µM (inactive) | > 100 | > 100 µM (inactive) | > 100 µM (inactive) | > 100 µM (inactive) |  | > 100 µM (inactive) | > 100 µM (inactive) | > 100 µM (inactive) | > 100 µM (inactive)
CC(=O)SC(SC(C)=O)SC(C)=O | > 100 µM (inactive) |  | > 100 µM (inactive) | > 100 µM (inactive) | > 100 µM (inactive) | 20.7 µM (inactive) | > 100 µM (inactive) | 91 µM (inactive) | > 100 µM (inactive) | 53.2 | > 100 µM (inactive) | > 100 µM (inactive) | > 100 µM (inactive) | > 100 µM (inactive) | > 100 µM (inactive) | > 100 µM (inactive) | 43.9 µM (inactive) | 
COc1cc2c(cc1OC)CC(=O)Nc1cc(OC)c(OC)cc1CC2 | 99.8 µM (inactive) | > 80.9 µM (inactive) | 97.1 µM (inactive) | 43.6 µM (inactive) | 47.9 µM (inactive) | 17.3 µM (inactive) | 45.9 µM (inactive) | 43.9 µM (inactive) | 18.5 µM (inactive) | 55 | 49 µM (inactive) | 55.2 µM (inactive) |  | 79.1 µM (inactive) | > 95.5 µM (inactive) | > 78.3 µM (inactive) | 52.5 µM (inactive) | 68.2 µM (inactive)
Cc1ccc(-c2cc(=O)c3cc(C)c(C)c(C(=O)O)c3o2)cc1N | > 100 µM (inactive) |  |  | > 100 µM (inactive) | > 100 µM (inactive) | > 100 µM (inactive) | > 100 µM (inactive) | > 100 µM (inactive) | > 100 µM (inactive) | > 100 | > 100 µM (inactive) |  | > 100 µM (inactive) | > 100 µM (inactive) | > 100 µM (inactive) | > 100 µM (inactive) | > 100 µM (inactive) | > 100 µM (inactive)
CCOC(=O)C(C(=O)OCC)=C1C=C(c2ccccc2)c2ccccc21 | > 100 µM (inactive) | 8.09 µM (inactive) | 7.29 µM (inactive) | 37.4 µM (inactive) | 89.3 µM (inactive) |  | > 100 µM (inactive) | > 100 µM (inactive) | 31.1 µM (inactive) | 25.8 | 48.9 µM (inactive) | 13.3 µM (inactive) | 40.2 µM (inactive) | 78.9 µM (inactive) | > 100 µM (inactive) | > 100 µM (inactive) | 30.5 µM (inactive) | 
CCN(CC)CCN1CCc2c([nH]c3ccccc23)C1c1cccnc1 (configuration not stated) | > 100 µM (inactive) | 65 µM (inactive) | > 100 µM (inactive) | > 100 µM (inactive) | > 100 µM (inactive) | > 100 µM (inactive) | > 100 µM (inactive) | > 100 µM (inactive) | > 100 µM (inactive) | > 100 | > 100 µM (inactive) | > 100 µM (inactive) |  |  | > 100 µM (inactive) | > 100 µM (inactive) | > 100 µM (inactive) | > 100 µM (inactive)
Cc1cc2c(=O)c3ccccc3[nH]c2c(C(=O)O)c1C | > 100 µM (inactive) | < 0.01 µM (active) | > 100 µM (inactive) | > 100 µM (inactive) | > 100 µM (inactive) |  | > 100 µM (inactive) | > 100 µM (inactive) |  | > 100 | 76 µM (inactive) | > 100 µM (inactive) | 67.1 µM (inactive) |  | 36.6 µM (inactive) | > 100 µM (inactive) | > 100 µM (inactive) | > 100 µM (inactive)
